One series addresses T1, ZAP70 (Homo sapiens, UniProt P43403).
T1 sequence (P43403 1-619): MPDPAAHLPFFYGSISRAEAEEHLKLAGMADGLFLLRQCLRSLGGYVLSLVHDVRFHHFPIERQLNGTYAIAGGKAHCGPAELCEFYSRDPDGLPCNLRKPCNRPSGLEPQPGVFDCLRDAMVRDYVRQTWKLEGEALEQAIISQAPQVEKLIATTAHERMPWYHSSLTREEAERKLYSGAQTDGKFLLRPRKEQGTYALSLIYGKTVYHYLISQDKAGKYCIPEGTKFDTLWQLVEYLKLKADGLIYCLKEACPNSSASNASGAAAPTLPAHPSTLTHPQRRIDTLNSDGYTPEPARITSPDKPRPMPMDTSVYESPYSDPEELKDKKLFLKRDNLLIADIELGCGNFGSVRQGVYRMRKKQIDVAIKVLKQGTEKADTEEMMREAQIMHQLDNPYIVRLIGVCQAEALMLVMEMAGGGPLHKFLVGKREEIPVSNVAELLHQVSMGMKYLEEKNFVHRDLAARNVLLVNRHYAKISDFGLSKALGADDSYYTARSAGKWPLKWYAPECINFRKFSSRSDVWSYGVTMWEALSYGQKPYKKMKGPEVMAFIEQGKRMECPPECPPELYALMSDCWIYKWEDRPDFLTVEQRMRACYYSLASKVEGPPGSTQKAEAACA
Briefly: biochemical. The conditions noted are these: read-out: Percent control.

For another series, the target named is FRK (Homo sapiens, UniProt P42685). In words: biochemical. The following applies: read-out: Percent control.
Sequence of FRK (P42685 whole entry): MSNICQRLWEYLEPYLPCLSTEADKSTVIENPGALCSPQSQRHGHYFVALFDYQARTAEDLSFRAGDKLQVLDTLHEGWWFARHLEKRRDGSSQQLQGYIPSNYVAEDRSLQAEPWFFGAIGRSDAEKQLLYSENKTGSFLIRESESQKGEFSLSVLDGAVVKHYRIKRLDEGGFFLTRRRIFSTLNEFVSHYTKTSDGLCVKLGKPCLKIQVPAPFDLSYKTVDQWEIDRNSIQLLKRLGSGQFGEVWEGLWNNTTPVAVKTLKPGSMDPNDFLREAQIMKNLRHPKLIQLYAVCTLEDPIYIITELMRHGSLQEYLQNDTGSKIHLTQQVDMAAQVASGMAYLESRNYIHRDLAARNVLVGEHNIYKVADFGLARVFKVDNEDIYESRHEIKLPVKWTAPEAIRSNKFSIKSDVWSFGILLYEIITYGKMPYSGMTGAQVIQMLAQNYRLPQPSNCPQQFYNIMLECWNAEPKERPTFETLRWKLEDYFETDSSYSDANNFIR
The target of a further series is ABL2 (Homo sapiens, UniProt P42684). In words: biochemical. The conditions noted are these: read-out: Percent control.
Another series concerns the target TIE2 (Homo sapiens, UniProt Q02763). In words: biochemical. The following applies: read-out: Percent control.
The next series concerns the target T2, EPHB6 (Homo sapiens, UniProt O15197).
T2 sequence (O15197 32-1021): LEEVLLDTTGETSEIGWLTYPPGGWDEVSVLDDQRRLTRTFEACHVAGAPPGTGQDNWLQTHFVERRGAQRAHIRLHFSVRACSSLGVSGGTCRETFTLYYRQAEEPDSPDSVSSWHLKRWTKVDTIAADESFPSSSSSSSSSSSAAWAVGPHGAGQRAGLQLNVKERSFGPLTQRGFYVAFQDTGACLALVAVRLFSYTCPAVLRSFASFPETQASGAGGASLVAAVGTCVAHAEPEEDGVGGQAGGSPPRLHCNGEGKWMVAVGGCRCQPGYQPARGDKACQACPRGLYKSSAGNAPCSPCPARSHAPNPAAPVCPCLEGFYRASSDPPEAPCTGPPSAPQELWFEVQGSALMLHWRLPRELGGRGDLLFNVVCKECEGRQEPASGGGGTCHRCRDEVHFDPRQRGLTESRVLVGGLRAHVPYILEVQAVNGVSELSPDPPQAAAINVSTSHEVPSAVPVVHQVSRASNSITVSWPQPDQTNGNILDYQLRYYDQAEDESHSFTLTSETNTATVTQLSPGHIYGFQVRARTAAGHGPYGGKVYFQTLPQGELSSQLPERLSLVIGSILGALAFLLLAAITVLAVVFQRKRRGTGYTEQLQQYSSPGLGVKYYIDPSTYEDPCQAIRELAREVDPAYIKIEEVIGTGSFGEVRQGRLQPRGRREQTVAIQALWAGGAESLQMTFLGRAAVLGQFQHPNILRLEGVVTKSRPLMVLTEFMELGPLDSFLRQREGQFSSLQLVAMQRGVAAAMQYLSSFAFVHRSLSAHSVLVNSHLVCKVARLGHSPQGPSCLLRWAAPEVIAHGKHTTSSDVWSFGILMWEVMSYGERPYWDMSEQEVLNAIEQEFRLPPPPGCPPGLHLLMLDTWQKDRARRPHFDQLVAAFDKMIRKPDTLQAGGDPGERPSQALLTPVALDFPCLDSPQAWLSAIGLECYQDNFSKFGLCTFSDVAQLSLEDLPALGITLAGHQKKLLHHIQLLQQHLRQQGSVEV
In words: biochemical. The conditions noted are these: read-out: Percent control.

Another series deals with K562. Briefly: Anticancer activity (cytotoxicity) in CML cell line. The class given is cell-based.
The target in series [1] is ABL1(H396P)-phosphorylated (Homo sapiens, UniProt P00519, H396P). In words: biochemical. The following applies: read-out: Percent control.
The next series has as its target RET(V804TL) (Homo sapiens, UniProt P07949, V804L). Briefly: biochemical. The conditions noted are these: read-out: Percent control.
The target in series [2] is T3, ABL1(F317L)-nonphosphorylated (Homo sapiens, UniProt P00519, F317L). In words: biochemical. The conditions noted are these: read-out: Percent control.
The target of series [3] is ABL1(E317I)-nonphosphorylated (Homo sapiens, UniProt P00519, F317I). Briefly: biochemical. The conditions noted are these: read-out: Percent control.
The target of another series is T4, ABCG2 (Homo sapiens, UniProt Q9UNQ0).
T4 construct: expressed in transfected cells; host or cells: MDCKII-ABCG2
T4 sequence (Q9UNQ0 whole entry, species assumed): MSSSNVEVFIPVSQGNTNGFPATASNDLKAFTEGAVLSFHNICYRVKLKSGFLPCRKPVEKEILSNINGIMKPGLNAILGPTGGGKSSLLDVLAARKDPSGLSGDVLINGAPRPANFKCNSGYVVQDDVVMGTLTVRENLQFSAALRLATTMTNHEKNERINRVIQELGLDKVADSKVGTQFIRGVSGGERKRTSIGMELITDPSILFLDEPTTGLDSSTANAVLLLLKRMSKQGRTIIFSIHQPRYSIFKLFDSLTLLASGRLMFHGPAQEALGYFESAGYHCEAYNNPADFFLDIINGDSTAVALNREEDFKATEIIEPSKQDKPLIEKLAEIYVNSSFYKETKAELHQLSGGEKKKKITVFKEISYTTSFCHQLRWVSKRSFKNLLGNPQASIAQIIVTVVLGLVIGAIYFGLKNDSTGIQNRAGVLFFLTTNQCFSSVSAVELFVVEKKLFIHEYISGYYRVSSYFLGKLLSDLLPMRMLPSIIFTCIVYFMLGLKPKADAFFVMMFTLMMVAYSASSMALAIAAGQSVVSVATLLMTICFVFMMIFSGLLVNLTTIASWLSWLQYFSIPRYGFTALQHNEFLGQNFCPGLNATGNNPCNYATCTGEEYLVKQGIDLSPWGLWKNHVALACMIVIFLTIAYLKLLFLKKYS
Briefly: Bidirectional drug transport assay. The class given is in vitro ADME. The conditions noted are these: dog, pH 7.4, MDCKII–ABCG2, mean of three experiments.

Series [4] is described as follows: Drug accumulation in organs of BALB/c mice. Type of series: in vivo. The following applies: intravenous 12.5 mg/kg, 30 min.
In series [5] the target is T3, ABL1(F317L)-nonphosphorylated. The following applies: 10 μM.
For a further series, the target named is T5, ABCG2 (MDCKII–ABCG2) (Homo sapiens, UniProt Q9UNQ0).
T5 construct: expressed in transfected cells; host or cells: MDCKII-ABCG2
T5 sequence (Q9UNQ0 whole entry, species assumed): as above
Briefly: Bidirectional drug transport assay. The class given is in vitro ADME. The conditions noted are these: 10 μM, mean of three experiments.

In a further series the target is P-gp (MDCKII–P-gp) (Homo sapiens, UniProt P08183). The conditions noted are these: 10 μM, mean of three experiments.
Sequence of P-gp (MDCKII–P-gp) (P08183 whole entry): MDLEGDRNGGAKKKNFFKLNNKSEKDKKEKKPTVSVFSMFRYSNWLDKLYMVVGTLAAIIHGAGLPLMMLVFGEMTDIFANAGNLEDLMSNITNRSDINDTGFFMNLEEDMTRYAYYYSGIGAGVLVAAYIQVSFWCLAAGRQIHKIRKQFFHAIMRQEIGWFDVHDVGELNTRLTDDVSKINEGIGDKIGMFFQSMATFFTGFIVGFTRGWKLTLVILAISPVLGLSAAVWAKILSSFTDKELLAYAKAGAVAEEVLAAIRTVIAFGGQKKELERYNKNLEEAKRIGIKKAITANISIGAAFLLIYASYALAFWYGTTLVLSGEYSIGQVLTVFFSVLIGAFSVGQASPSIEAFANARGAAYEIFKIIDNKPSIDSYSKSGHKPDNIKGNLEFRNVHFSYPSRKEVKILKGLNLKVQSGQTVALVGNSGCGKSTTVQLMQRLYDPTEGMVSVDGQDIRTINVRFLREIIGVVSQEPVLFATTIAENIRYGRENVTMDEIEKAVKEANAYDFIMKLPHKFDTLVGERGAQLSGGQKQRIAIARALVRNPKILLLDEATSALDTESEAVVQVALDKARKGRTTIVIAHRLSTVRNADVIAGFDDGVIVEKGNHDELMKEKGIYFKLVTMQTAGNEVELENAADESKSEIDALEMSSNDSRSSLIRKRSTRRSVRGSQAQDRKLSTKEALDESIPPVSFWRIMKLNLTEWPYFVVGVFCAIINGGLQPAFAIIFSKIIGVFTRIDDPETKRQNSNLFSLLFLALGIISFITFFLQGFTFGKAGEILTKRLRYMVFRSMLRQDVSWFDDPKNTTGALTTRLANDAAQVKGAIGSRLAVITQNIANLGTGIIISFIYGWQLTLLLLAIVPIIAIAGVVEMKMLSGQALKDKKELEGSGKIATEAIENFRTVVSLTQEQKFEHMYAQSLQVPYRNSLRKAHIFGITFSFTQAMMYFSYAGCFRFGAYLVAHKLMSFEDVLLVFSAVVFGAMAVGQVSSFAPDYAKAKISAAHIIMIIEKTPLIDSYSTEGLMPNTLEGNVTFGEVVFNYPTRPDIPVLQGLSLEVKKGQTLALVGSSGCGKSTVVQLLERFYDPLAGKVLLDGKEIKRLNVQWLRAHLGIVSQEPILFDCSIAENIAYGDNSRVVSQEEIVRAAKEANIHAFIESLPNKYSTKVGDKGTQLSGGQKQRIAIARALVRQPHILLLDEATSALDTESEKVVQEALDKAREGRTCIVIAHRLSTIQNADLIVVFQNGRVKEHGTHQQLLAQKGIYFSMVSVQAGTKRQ
Series [6] concerns the target ABL1(F317I)-phosphorylated (Homo sapiens, UniProt P00519, F317I). The following applies: 10 μM.
The next series deals with EGFR(L861Q) (Homo sapiens, UniProt P00533, L861Q). Briefly: biochemical. The conditions noted are these: read-out: Percent control.
Sequence of EGFR(L861Q) (P00533 25-1210 L861Q): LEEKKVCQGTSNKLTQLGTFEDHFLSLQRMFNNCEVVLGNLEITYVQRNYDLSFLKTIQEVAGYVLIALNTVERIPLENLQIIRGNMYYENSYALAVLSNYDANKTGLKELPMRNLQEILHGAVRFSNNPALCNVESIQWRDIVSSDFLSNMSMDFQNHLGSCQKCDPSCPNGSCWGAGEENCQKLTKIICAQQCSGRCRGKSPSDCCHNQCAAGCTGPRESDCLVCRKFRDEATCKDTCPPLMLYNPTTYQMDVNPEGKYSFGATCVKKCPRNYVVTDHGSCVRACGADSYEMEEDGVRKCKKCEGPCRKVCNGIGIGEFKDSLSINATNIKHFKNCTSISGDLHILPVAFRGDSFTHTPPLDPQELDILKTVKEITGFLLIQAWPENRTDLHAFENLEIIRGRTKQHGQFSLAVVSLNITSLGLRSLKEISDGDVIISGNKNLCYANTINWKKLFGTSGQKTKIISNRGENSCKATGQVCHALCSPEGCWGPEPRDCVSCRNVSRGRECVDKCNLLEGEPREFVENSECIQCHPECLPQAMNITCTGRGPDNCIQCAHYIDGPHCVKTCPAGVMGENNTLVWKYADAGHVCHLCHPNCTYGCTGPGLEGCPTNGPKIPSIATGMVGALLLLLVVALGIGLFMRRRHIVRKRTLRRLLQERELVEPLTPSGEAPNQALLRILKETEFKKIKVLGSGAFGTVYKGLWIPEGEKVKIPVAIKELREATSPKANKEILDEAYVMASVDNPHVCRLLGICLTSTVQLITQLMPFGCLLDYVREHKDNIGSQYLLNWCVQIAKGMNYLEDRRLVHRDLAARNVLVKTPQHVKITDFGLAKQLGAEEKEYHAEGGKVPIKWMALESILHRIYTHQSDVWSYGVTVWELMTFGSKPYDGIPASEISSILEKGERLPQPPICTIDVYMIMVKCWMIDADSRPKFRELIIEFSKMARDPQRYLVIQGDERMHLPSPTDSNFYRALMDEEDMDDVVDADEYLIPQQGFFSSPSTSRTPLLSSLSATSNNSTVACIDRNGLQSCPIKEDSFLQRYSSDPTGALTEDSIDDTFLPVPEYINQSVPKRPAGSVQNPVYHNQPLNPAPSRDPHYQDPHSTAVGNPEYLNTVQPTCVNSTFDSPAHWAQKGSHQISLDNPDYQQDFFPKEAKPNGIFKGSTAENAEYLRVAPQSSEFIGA
The target in the next series is EGFR(T790M) (Homo sapiens, UniProt P00533, T790M). In words: biochemical. The following applies: read-out: Percent control.

The results in this text go back to PMC4858680, “A platinum-based hybrid drug design approach to circumvent acquired resistance to molecular targeted tyrosine kinase inhibitors” (Scientific Reports, 2016).

Where two headings read alike, the source gives them in different places.

Sequence of RET(V804TL) (P07949 29-1114 V804L): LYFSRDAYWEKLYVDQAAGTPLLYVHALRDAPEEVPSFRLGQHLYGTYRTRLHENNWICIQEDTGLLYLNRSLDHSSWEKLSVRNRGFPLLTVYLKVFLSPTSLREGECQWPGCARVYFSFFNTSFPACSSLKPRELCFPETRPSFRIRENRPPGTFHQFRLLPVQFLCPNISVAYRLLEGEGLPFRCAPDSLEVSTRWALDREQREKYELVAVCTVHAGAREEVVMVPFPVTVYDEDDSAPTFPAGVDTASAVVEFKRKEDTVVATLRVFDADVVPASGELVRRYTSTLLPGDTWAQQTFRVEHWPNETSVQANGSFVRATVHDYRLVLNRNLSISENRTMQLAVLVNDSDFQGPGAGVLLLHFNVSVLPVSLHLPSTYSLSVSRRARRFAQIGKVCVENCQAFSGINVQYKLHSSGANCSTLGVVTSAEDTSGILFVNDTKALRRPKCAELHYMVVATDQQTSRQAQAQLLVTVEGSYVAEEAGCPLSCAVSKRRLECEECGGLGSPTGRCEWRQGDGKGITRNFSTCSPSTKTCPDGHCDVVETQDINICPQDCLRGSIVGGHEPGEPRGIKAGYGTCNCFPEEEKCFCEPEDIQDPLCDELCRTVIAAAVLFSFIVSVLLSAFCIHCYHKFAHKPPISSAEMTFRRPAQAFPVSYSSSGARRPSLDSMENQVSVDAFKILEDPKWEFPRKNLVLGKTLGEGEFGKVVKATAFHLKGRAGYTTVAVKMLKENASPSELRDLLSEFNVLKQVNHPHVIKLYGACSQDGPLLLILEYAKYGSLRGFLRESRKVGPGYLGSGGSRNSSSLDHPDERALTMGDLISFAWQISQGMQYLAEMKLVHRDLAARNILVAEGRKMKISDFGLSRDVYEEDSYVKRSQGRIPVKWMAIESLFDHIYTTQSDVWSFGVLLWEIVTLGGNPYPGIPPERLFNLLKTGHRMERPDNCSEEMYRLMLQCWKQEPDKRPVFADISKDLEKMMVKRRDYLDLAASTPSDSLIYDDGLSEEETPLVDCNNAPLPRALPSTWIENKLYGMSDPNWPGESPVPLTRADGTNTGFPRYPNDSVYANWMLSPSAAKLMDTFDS

In the case of `COc1cc2c(Nc3ccc(Br)cc3F)ncnc2cc1OCC1CCN(C)CC1` [Vandetanib, reference compound], the remaining activity at 10 µM on ZAP70 amounted to 100%; at FRK, 1.7%; at ABL2 it was 0.7%; on TIE2 it was 9.1%; on EPHB6, 0.8%.
With `Cc1ccc(NC(=O)c2ccc(CN3CCN(C)CC3)cc2)cc1Nc1nccc(-c2cccnc2)[n+]1[Pt-2]1([Cl])[NH2+]C2CCCCC2[NH2+]1` (stereo not drawn) [1b, oxaliplatin-imatinib], the IC50 in the series on K562 (CML cell line, Bcr-Abl positive, Table 1, read-out: Anticancer activity (IC50) K562) amounted to 2270 ± 330 nM; with K562 (Table 2, read-out: Anticancer activity (IC50) K562 Sensitive parental), 2270 ± 330 nM.
On to `C#Cc1cccc(Nc2ncnc3cc(OCCOC)c(OCCOC)cc23)c1` [Erlotinib], for which the remaining activity at 10 µM in series [1] stood at 0.6%; on RET(V804TL) it was 100%; in [2], 6%; in [3] it was 45.1%; on EPHB6, 14.5%. Besides, the Papp A→B at 120 min, 10 μM at ABCG2 (read-out: A to B transport (apparent permeability)) turned out to be 14.9 ×10⁻⁶ cm/s. The Papp B→A at 120 min, 10 μM on ABCG2 (read-out: B to A transport (apparent permeability)) was 45.4 ×10⁻⁶ cm/s.
With `C#Cc1cccc(Nc2c3cc(OCCOC)c(OCCOC)cc3nc[n+]2[Pt@SP2-2]([NH3+])([NH3+])[Cl])c1` [2a, cisplatin-erlotinib], in series [4], the “brain accumulation, times higher than that of cisplatin” value is reported as 7 times and the “brain accumulation, times higher than that of erlotinib” value is reported as above 3 times. Besides, in series [5], the Percent control came out at 61%. Also, on ABCG2 (MDCKII–ABCG2), the “A to B transport (apparent permeability)” value is reported as 7.21 × 10^−6 and the “B to A transport (apparent permeability)” value was 7.88 × 10^−6. Moreover, on P-gp (MDCKII–P-gp), the “A to B transport (apparent permeability)” value is on record as 3.32 × 10^−6 and the “B to A transport (apparent permeability)” value was 2.82 × 10^−6. Besides, in series [6], the Percent control is 49%.
As for `Cc1ccc(NC(=O)c2ccc(CN3CCN(C)CC3)cc2)cc1Nc1nccc(-c2cccnc2)n1` [Imatinib, reference compound], the remaining activity at 10 µM at EGFR(L861Q) and at EGFR(T790M) was 100% in each case.

The IC50 is the concentration that gives 50% inhibition.
